Structures are written as SMILES.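 Following 48 hours of exposure in 96-well plates, responses at five concentrations were used to interpolate endpoints linearly. GI50: concentration for 50% inhibition of growth.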 Activity calls are given as the source filed them. Cut-off read from the data, not from the text of the source: active = GI50 up to about 1.1 µM and inactive = higher.

What all share (assay): NCI tumour cell line growth inhibition, 48 h
The test system of experiment [1] is ACHN.
For experiment [2], the system named is HCC 2998.
Experiment [3] has as its system IGROV-1.
For experiment [4], the system named is KM12.
In experiment [5] the test system is M14.
Experiment [6] deals with NCI-H23.
The subject of experiment [7] is NCI-H522.
Experiment [8] deals with OVCAR-3.
For experiment [9], the system named is OVCAR-4.
Experiment [10] deals with OVCAR-5.
The test system of experiment [11] is OVCAR-8.
In experiment [12] the test system is RPMI-8226.
Experiment [13] has as its system SF-295.
The subject of experiment [14] is SK-OV-3.
In experiment [15] the test system is TK-10.
For experiment [16], the system named is UACC-257.
In experiment [17] the test system is UO-31.

With `COc1ccc(OC(C)=O)c2c1CCC=CC2=O`, the GI50 in [1] is 17.9 µM (inactive); in experiment [2], 17.1 µM (inactive); in experiment [3], 17.7 µM (inactive); in experiment [4], 3.4 µM (inactive); in experiment [5], 6.78 µM (inactive); in [6] it was 18.5 µM (inactive). In addition, the GI50 in experiment [7] was 1.86 µM (inactive); in [8], 15.8 µM (inactive); in experiment [9] it was 20 µM (inactive); in experiment [10] it was 16.7 µM (inactive); in [11], 16.8 µM (inactive); in [12], 1.01 µM (active). The GI50 is 20.9 µM (inactive) in [13]; 17.5 µM (inactive) in experiment [14]; 18.3 µM (inactive) in experiment [15]; 17.7 µM (inactive) in [16]; 17.2 µM (inactive) in experiment [17].
For `COc1cc(/C=C\c2ccc(Br)cc2)cc(OC)c1OC`, the GI50 was 0.000794 µM (active) in experiment [1]; 0.0155 µM (active) in experiment [2]; 0.0124 µM (active) in [3]; 0.000612 µM (active) in experiment [4]; 0.000312 µM (active) in [5]; 0.000904 µM (active) in [6]. Moreover, the GI50 was 0.000357 µM (active) in experiment [7]; 0.000341 µM (active) in experiment [8]; 0.0622 µM (active) in [9]; 35.4 µM (inactive) in [10]; 0.00161 µM (active) in experiment [11]; 0.000582 µM (active) in experiment [12]. Besides, the GI50 in [13] is 0.000296 µM (active); in experiment [14], 58.2 µM (inactive); in experiment [16], 0.000414 µM (active); in [17] it was 0.00321 µM (active).
For `CC(=O)NC(CCCCN(Cc1ccccc1)C(=O)N(C)N=O)C(=O)NCc1ccccc1` (stereo not drawn), the GI50 in [1], in experiment [2], in experiment [3], in experiment [4], in experiment [5] and in experiment [6] was > 100 µM (inactive) in each case. Also, the GI50 in experiment [7] was 16.8 µM (inactive); in experiment [8], > 100 µM (inactive); in experiment [9], 62.2 µM (inactive); in [10], > 100 µM (inactive); in experiment [11], > 100 µM (inactive); in experiment [12], 40.6 µM (inactive). Besides, the GI50 in experiment [13] is > 100 µM (inactive); in experiment [14], > 100 µM (inactive); in experiment [15], > 100 µM (inactive); in [16] it was > 100 µM (inactive); in experiment [17], 47.3 µM (inactive).
In the case of `CC1=C(O)C(=O)C2C(=O)C1C(C)C2c1ccc(C)cc1` (stereo not drawn), the GI50 in [1], in experiment [2], in experiment [3], in [4], in experiment [5] and in experiment [6] was > 100 µM (inactive) throughout. In addition, the GI50 in experiment [7], in experiment [8], in experiment [9], in experiment [10], in [11] and in experiment [12] was > 100 µM (inactive) throughout. The GI50 in experiment [13], in experiment [14], in experiment [15], in experiment [16] and in experiment [17] was > 100 µM (inactive) in each case.
For the compound `Cc1ccccc1N(CC(=O)O)S(=O)(=O)c1ccccc1`, the GI50 in experiment [1], in [2], in experiment [3], in experiment [4], in experiment [5] and in [6] was > 100 µM (inactive) in each case. The GI50 in experiment [7], in experiment [8], in [9], in experiment [10], in experiment [11] and in [12] was > 100 µM (inactive) each time. Moreover, the GI50 in experiment [13], in experiment [14], in experiment [15], in experiment [16] and in experiment [17] was > 100 µM (inactive) in each case.
As for `CC[C@@H](C(=O)[C@@H](C)[C@@H](O)[C@H](C)CCc1ccc(C)c(O)c1C(=O)O)[C@H]1O[C@](CC)([C@H]2CC[C@](O)(CC)[C@H](C)O2)C[C@@H]1C` [LASALOCID A SODIUM], the GI50 was 2.64 µM (inactive) in experiment [1]; 1.05 µM (active) in experiment [2]; 2.88 µM (inactive) in experiment [3]; 1.84 µM (inactive) in experiment [4]; 3.31 µM (inactive) in [5]; 1.39 µM (inactive) in experiment [6]. In addition, the GI50 in experiment [7] was 1.01 µM (active); in [8], 0.637 µM (active); in experiment [9], 3.23 µM (inactive); in [10], 6.47 µM (inactive); in [11], 2.3 µM (inactive); in [12], 1.2 µM (inactive). For the same compound, the GI50 in [13] is 1.56 µM (inactive); in [14] it was 2.92 µM (inactive); in [15], 2.79 µM (inactive); in [16], 2.99 µM (inactive); in [17] it was 3.17 µM (inactive).
For `O=C(Cc1nc2ccccc2o1)C(=O)Nc1cccc(C(F)(F)F)c1`, the GI50 in experiment [1], in [2], in [3], in experiment [4], in experiment [5] and in experiment [6] was > 100 µM (inactive) throughout. In addition, the GI50 in experiment [7], in experiment [8], in [9], in experiment [10], in experiment [11] and in experiment [12] was > 100 µM (inactive) throughout. Besides, the GI50 in experiment [13], in [14], in experiment [15], in [16] and in [17] was > 100 µM (inactive) in each case.
Take `CCOc1ccccc1NC(=O)/C=C1\NC(=O)CS1`: the GI50 in [2] was > 100 µM (inactive); in [3], > 100 µM (inactive); in experiment [4], > 100 µM (inactive); in experiment [5], > 100 µM (inactive); in experiment [6], > 100 µM (inactive); in experiment [7], 86.1 µM (inactive). For the same compound, the GI50 in experiment [8] is > 100 µM (inactive); in experiment [9], > 100 µM (inactive); in experiment [10], > 100 µM (inactive); in experiment [11] it was > 100 µM (inactive); in [12], 62.5 µM (inactive); in experiment [13] it was > 100 µM (inactive). Moreover, the GI50 in experiment [14], in experiment [15] and in experiment [17] was > 100 µM (inactive) each time.
As to `CCc1cccc(C(C)C)c1NC(=O)C(=O)C(CC(=O)Nc1ccc(Cl)c(Cl)c1)C(=O)OC` (stereo not drawn), the GI50 is 78 µM (inactive) in experiment [1]; > 100 µM (inactive) in experiment [2]; > 100 µM (inactive) in [3]; 43.7 µM (inactive) in experiment [4]; 54.3 µM (inactive) in [5]; > 100 µM (inactive) in [6]. Also, the GI50 in experiment [7] is 78.9 µM (inactive); in experiment [8], > 100 µM (inactive); in experiment [9], > 100 µM (inactive); in [10], > 100 µM (inactive); in experiment [11], > 100 µM (inactive); in experiment [12], 44 µM (inactive). Also, the GI50 was > 100 µM (inactive) in [13]; > 100 µM (inactive) in experiment [14]; > 100 µM (inactive) in experiment [15]; > 100 µM (inactive) in experiment [16]; 37.8 µM (inactive) in experiment [17].
Take `O=C1C=CC2(C=C1)C[C@H](NC(=O)C(F)(F)F)C(=O)O2`: the GI50 in experiment [1] was > 100 µM (inactive); in [2], 46.9 µM (inactive); in [4], 73.5 µM (inactive); in experiment [5], 73.8 µM (inactive); in [6] it was 26.7 µM (inactive); in experiment [7], 17.3 µM (inactive). The GI50 in experiment [8] is > 100 µM (inactive); in [9], > 100 µM (inactive); in experiment [10] it was > 100 µM (inactive); in experiment [11] it was 37.2 µM (inactive); in experiment [12], 31.3 µM (inactive); in experiment [13] it was > 100 µM (inactive). Also, the GI50 in [14] was > 100 µM (inactive); in [15], > 100 µM (inactive); in experiment [16] it was 34.8 µM (inactive); in experiment [17] it was > 100 µM (inactive).
Regarding `COc1cc(-c2cc(=O)c3c(O)c(OC)c(OC)c(OC)c3o2)ccc1O`, the GI50 is 21.4 µM (inactive) in experiment [1]; 34.6 µM (inactive) in [2]; 4.84 µM (inactive) in experiment [3]; 29.9 µM (inactive) in experiment [4]; 23.3 µM (inactive) in experiment [5]; 27.7 µM (inactive) in experiment [6]. For the same compound, the GI50 in [7] was 17.1 µM (inactive); in experiment [8] it was 32.1 µM (inactive); in experiment [10], > 100 µM (inactive); in experiment [11], 16.3 µM (inactive); in experiment [12], 19 µM (inactive); in [13], 23.4 µM (inactive). The GI50 is 11.2 µM (inactive) in experiment [14], 28.2 µM (inactive) in [15], 20.7 µM (inactive) in experiment [16] and 28.8 µM (inactive) in [17].
Turning to `COCCCNC(=O)C1C(=O)C(=O)N(CCCOC)C1=O` (stereo not drawn), the GI50 in experiment [1], in [2], in experiment [3], in experiment [5], in [6] and in experiment [7] was > 100 µM (inactive) in each case. In addition, the GI50 in experiment [8], in experiment [9], in experiment [10], in experiment [11], in experiment [12] and in experiment [13] was > 100 µM (inactive) each time. For the same compound, the GI50 in experiment [14], in experiment [15], in experiment [16] and in [17] was > 100 µM (inactive) throughout.

The record behind these values is ChEMBL document CHEMBL1201862, “PubChem BioAssay data set” (2004).
